Laboratory results: ChEMBL document CHEMBL1201862, “PubChem BioAssay data set” (2004)
Calls of active or inactive are those of the source.

Tests used:
[1] = target: T1, RNA-binding protein pos-1 (Caenorhabditis elegans, UniProt G5EF15); experiment: inhibitors of POS-1/mex-3 RNA binding, dose response, biochemical, fluorescence polarization (AID 1964);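 also: purified POS-1 fused to maltose binding protein made in E. coli; potency of compounds blocking POS-1 binding to fluorescent RNA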
T1 sequence (G5EF15 whole entry): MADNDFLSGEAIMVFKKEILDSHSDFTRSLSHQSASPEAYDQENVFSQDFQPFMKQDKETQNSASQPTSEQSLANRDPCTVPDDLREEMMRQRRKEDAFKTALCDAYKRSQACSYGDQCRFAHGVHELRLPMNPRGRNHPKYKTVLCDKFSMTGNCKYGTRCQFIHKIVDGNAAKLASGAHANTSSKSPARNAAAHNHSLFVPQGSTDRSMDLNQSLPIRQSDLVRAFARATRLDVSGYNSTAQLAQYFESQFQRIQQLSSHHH

[2] = target: T2, Zinc finger protein mex-5 (Caenorhabditis elegans, UniProt Q9XUB2); experiment: MEX-5/TCR-2 RNA interaction inhibitors, dose response, biochemical, C. elegans, fluorescence polarization (AID 1960)
T2 sequence (Q9XUB2 whole entry): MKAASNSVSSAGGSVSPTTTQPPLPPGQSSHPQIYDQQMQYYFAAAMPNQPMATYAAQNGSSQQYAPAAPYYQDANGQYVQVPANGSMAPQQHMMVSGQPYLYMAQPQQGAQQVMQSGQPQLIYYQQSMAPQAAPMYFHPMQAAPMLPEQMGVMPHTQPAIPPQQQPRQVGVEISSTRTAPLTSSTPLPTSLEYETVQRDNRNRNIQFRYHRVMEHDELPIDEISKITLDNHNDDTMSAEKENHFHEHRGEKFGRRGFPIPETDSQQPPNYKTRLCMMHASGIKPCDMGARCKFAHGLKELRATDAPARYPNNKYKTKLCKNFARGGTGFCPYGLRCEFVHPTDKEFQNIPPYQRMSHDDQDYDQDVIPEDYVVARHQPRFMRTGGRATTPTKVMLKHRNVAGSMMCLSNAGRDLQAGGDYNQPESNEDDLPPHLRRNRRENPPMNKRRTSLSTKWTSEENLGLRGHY

[3] = target: Glucose-6-phosphate 1-dehydrogenase (Homo sapiens, UniProt P11413); experiment: human G6PD enzyme inhibitors, dose response, selectivity assay for P. falciparum G6PD inhibitor project, biochemical, fluorescence (AID 504792); assay type: functional
[4] = target: T3, Rac GTPase-activating protein 1 (Homo sapiens, UniProt Q9H0H5); experiment: MgcRacGAP GTPase-activating activity inhibitors, confirmation, biochemical, ADP Hunter fluorescence, primary and confirmatory (AID 624330); assay type: functional
T3 sequence (Q9H0H5 whole entry): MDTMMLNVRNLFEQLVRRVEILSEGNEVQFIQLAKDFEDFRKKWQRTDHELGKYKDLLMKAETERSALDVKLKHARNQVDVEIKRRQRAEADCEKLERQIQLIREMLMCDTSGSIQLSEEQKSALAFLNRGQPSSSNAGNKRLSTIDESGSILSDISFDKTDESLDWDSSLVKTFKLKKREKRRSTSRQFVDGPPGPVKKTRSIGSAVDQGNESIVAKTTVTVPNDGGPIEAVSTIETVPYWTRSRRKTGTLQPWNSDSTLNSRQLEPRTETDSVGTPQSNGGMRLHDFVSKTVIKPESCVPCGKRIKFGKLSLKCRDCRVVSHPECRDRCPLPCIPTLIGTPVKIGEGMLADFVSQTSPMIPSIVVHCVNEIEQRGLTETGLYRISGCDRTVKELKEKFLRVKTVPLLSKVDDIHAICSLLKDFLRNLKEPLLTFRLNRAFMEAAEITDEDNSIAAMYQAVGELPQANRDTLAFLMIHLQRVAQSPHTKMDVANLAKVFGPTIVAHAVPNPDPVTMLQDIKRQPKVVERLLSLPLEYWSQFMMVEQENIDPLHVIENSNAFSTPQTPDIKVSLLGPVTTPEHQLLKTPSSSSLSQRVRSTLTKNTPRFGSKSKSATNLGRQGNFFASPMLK

Cytochrome P450 3A4 = Cytochrome P450 3A4 (Homo sapiens, UniProt P08684);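 also: CYP3A4 tested as one member of a cytochrome P450 panel screen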
Cytochrome P450 2C9 [5] = target: T4, Cytochrome P450 2C9 (Homo sapiens, UniProt P11712)
[6] = target: Peroxisome proliferator-activated receptor gamma/Nuclear receptor coactivator 1 (Homo sapiens, UniProt P37231); experiment: (§1) TR-FRET dose response biochemical High Throughput Screening assay for agonists of the steroid receptor coactivator 1 (SRC-1) recruitment by the peroxisome proliferator-activated receptor gamma (PPAR gamma): non-selective agonists. [Related pubchem assays (depositor defined):AID1300, AID1808, AID504735, AID631]; assay type: protein assay
[7] = target: Peroxisome proliferator-activated receptor gamma/Nuclear receptor coactivator 3 (Homo sapiens, UniProt P37231); experiment: as §1, with “3 (SRC-3)” for “1 (SRC-1)”, “assays: 1301 (Confirmation screen.), 1048 (Primary screen.)]” for “assays (depositor defined):AID1300, AID1808, AID504735, AID631]”; assay type: functional
[8] = target: Peroxisome proliferator-activated receptor gamma/Nuclear receptor coactivator 2 (Homo sapiens, UniProt P37231); experiment: TR-FRET dose response biochemical High Throughput Screening assay for agonists of the steroid receptor coactivator 2 (SRC-2) recruitment by the peroxisome proliferator-activated receptor gamma (PPAR gamma): non-selective agonists. [Related pubchem assays: 1297, 1032 ]; assay type: functional
Cytochrome P450 2C19 = Cytochrome P450 2C19 (Homo sapiens, UniProt P33261); experiment: Cytochrome panel assay with activity outcomes. Panel member name: p450-cyp2c19 Compounds with AC50 equal or less than 10 uM are considered active; assay type: functional
Cytochrome P450 2C9 [9] = target: T4, Cytochrome P450 2C9; remark: listed apart in the source
HEK293 [10] = experiment: NOD1 signaling inhibitors, primary screen, cell-based, luminescence, uHTS (AID 1578); assay type: functional; conditions: Homo sapiens
HEK293 [11] = experiment: cells; assay type: functional, cell-based; conditions: Homo sapiens
HEK293 [12] = experiment: cells; assay type: functional, cell-based; conditions: Homo sapiens; remark: listed apart in the source
HEK293 [13] = experiment: NOD2 signaling inhibitors in MDP-stimulated cells, cell-based, uHTS, luminescence (AID 2001); assay type: functional; conditions: Homo sapiens
[14] = target: DNA dC->dU-editing enzyme APOBEC-3A (Homo sapiens, UniProt P31941); experiment: Dose Response confirmation of small molecule APOBEC3A DNA Deaminase Inhibitors via a fluorescence-based single-stranded DNA deaminase assay. [Related pubchem assays (depositor defined):AID493011, AID493024]; assay type: functional
[15] = target: DNA dC->dU-editing enzyme APOBEC-3G (Homo sapiens, UniProt Q9HC16); assay type: functional;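 also: Dose-response counterscreen measuring inhibition of APOBEC3G DNA deaminase activity, run while confirming APOBEC3A inhibitors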
[16] = target: Alkaline phosphatase, placental type (Homo sapiens, UniProt P05187); experiment: PLAP enzyme inhibitors, confirmation, biochemical, luminescence (AID 1512); assay type: functional
[17] = target: T5, Alkaline phosphatase, tissue-nonspecific isozyme (Homo sapiens, UniProt P05186); experiment: human TNAP enzyme inhibitors, SAR follow-up, biochemical, luminescent, dose response (AID 1056)
T5 sequence (P05186 whole entry): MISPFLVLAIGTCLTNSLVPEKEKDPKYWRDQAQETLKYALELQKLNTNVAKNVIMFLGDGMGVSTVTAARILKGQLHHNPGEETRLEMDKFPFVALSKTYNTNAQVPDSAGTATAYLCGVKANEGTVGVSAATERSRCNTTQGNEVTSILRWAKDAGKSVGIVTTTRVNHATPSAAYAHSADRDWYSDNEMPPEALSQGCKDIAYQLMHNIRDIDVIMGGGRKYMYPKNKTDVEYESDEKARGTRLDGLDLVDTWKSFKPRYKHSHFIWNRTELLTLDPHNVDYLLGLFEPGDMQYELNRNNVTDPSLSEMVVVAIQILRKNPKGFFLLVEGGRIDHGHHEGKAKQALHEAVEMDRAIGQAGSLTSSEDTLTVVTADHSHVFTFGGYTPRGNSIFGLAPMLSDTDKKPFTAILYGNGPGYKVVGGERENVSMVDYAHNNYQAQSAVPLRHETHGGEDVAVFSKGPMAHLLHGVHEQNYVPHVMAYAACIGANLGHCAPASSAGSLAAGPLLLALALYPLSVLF

[18] = target: FAD-linked sulfhydryl oxidase ALR (Homo sapiens, UniProt P55789); experiment: inhibitors of human ALR sulfhydryl oxidase, dose response, biochemical, H2O2 detection, luminescence, cherry-pick (AID 493248)
Cytochrome P450 2D6 = Cytochrome P450 2D6 (Homo sapiens, UniProt P10635);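 also: CYP2D6 member of a cytochrome P450 panel assay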

Sequence of DNA dC->dU-editing enzyme APOBEC-3A (P31941 whole entry): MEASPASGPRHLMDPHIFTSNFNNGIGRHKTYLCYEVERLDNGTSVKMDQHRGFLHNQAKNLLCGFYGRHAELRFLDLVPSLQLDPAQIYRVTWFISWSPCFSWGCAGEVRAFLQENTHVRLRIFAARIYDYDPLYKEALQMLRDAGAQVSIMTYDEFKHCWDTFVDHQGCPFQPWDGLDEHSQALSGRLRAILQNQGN
Sequence of DNA dC->dU-editing enzyme APOBEC-3G (Q9HC16 whole entry): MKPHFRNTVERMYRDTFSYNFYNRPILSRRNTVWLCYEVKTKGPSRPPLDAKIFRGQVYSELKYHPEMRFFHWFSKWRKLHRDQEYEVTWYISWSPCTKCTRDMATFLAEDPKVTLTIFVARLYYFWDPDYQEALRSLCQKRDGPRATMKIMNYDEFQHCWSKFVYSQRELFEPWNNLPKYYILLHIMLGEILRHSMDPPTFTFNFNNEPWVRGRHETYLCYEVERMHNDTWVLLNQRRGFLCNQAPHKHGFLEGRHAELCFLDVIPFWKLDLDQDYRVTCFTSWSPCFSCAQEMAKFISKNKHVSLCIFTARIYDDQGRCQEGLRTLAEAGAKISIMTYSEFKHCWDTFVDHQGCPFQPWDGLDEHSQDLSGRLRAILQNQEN
Sequence of Cytochrome P450 2C19 (P33261 whole entry): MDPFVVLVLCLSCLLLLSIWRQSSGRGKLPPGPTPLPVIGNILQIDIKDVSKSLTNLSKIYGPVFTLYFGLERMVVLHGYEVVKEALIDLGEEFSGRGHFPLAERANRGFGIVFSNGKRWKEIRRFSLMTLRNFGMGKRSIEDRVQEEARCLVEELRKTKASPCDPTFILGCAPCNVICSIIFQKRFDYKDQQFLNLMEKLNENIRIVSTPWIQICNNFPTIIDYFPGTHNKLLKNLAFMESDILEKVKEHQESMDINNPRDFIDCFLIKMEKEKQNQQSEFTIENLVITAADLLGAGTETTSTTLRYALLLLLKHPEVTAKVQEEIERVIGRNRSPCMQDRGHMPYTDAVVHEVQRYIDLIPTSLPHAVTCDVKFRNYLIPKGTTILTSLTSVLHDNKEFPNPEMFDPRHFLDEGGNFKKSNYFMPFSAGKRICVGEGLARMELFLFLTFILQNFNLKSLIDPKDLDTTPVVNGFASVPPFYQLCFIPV
Sequence of Alkaline phosphatase, placental type (P05187 whole entry): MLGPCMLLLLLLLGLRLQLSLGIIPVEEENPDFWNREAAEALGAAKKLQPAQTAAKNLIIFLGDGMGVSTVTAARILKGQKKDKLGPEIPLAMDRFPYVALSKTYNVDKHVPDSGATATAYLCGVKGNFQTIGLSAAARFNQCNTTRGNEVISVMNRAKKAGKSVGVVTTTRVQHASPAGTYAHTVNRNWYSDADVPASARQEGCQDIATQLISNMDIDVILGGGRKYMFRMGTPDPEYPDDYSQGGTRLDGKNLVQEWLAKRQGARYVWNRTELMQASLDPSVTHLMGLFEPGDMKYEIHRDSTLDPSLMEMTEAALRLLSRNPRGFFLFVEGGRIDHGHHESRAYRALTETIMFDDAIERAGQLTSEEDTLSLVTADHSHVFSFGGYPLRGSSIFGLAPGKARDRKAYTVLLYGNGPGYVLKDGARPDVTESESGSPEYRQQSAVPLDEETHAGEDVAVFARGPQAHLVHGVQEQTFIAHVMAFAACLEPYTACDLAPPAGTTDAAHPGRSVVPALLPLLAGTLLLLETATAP
Sequence of Peroxisome proliferator-activated receptor gamma/Nuclear receptor coactivator 3 (P37231 whole entry): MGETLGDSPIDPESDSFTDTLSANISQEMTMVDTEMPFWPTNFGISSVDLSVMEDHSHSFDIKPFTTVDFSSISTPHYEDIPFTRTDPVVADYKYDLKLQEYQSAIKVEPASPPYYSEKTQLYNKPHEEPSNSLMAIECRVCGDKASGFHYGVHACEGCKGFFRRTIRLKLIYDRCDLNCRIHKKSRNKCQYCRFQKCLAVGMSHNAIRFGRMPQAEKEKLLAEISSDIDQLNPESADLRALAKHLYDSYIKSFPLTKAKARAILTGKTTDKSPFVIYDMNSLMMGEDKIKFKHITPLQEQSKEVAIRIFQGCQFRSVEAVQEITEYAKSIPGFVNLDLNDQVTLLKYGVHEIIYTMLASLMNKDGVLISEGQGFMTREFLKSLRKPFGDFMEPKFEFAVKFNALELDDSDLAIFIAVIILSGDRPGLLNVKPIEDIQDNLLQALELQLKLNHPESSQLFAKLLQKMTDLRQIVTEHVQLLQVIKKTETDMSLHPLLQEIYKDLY
Sequence of Peroxisome proliferator-activated receptor gamma/Nuclear receptor coactivator 3 (Q9Y6Q9 whole entry, further chain): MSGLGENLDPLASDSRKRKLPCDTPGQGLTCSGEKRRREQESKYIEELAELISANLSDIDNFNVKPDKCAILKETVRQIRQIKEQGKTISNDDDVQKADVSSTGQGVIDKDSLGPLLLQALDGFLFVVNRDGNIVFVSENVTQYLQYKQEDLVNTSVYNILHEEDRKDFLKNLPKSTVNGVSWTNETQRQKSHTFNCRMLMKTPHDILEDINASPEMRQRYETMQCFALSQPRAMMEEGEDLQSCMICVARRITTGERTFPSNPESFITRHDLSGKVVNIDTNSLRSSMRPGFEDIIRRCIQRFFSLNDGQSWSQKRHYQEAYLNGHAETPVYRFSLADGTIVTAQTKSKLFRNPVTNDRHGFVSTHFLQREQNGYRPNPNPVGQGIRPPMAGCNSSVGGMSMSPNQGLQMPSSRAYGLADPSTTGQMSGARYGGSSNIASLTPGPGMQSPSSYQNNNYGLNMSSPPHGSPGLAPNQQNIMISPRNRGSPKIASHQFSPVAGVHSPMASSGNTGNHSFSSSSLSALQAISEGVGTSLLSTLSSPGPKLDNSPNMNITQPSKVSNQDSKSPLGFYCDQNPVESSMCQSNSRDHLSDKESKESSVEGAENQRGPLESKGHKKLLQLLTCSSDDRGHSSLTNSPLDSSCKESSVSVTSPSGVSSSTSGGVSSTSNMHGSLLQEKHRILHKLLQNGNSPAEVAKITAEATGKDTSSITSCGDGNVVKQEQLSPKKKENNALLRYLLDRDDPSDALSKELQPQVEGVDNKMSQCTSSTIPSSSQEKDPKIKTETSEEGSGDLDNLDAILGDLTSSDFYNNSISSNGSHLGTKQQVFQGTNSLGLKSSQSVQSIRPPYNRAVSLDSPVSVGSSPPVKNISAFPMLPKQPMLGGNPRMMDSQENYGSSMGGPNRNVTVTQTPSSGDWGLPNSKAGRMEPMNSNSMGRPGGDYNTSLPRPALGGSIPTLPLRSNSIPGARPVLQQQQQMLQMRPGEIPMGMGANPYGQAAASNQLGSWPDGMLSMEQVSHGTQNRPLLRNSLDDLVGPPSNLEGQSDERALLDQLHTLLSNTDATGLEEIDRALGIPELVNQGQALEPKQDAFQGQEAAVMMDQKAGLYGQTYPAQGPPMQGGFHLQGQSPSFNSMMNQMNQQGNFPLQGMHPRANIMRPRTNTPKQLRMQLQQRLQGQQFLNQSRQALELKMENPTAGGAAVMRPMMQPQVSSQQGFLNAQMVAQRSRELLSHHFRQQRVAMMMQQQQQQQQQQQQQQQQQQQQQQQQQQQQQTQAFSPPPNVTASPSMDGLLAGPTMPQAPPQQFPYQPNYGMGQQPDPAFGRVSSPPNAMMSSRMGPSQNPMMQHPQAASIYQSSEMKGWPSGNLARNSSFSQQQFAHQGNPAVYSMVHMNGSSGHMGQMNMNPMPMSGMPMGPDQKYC
T4 sequence (P11712 whole entry): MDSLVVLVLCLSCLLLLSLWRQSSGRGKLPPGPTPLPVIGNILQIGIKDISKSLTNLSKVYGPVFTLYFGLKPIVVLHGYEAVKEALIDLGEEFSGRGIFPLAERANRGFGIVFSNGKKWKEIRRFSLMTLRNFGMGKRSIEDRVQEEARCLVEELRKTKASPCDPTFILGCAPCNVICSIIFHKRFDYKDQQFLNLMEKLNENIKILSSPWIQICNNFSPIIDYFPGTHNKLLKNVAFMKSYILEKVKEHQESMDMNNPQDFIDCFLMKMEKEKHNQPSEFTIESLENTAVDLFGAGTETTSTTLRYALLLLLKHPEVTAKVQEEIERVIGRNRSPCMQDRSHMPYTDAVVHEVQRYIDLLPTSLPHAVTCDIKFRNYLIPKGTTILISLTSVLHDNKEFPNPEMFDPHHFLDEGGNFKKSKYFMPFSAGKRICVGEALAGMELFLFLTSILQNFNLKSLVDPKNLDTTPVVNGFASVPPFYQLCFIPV
Sequence of Glucose-6-phosphate 1-dehydrogenase (P11413 whole entry): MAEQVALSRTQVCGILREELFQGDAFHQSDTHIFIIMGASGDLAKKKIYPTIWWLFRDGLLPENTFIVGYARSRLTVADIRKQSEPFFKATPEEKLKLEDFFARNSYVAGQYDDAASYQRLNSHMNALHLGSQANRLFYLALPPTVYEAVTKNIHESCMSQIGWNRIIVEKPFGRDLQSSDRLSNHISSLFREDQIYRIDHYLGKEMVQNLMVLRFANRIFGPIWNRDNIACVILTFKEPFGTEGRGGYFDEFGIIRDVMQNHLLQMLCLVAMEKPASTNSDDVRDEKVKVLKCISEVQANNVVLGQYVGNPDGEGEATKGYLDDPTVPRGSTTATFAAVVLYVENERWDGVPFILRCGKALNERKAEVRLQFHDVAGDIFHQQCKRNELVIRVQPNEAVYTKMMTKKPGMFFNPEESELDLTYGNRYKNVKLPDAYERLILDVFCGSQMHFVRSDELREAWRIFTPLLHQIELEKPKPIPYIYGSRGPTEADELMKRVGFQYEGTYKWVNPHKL
Sequence of FAD-linked sulfhydryl oxidase ALR (P55789 whole entry): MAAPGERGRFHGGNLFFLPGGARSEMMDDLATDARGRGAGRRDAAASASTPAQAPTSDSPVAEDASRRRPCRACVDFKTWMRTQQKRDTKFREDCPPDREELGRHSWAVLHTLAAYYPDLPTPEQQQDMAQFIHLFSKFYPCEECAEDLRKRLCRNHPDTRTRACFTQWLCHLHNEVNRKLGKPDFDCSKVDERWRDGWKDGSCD

Which EC50 [1] does the source give for CC1N(C)c2cccc3cccc(c23)N1C here?
The EC50 was > 300 µM (not active).

What about the EC50 [2] of the same compound?
Its EC50 is > 300 µM (inconclusive).

And the IC50 [3]?
Its IC50 is > 80 µM (inactive).

What about the IC50 [4] of the same compound?
Its IC50 is 25 µM (active).

Which IC50 [3] does the source give for O=C(OCC(=O)c1ccc([N+](=O)[O-])cc1)/C(=C\c1ccc(Cl)cc1)NC(=O)c1ccccc1 here?
Its IC50 is > 80 µM (inactive).

And the AC50 (Cytochrome P450 3A4)?
The AC50 was 22.4 µM (inconclusive).

And the AC50 (Cytochrome P450 2C9 [5])?
Its AC50 is 0.0355 µM (inconclusive).

Which results are given for Cc1ccc(Sc2ccc(NC(=O)c3ccc(S(C)(=O)=O)cc3Cl)cc2)cc1?
EC50 [6]: 5.96 µM (active); EC50 [7]: > 8.82 µM (not active); EC50 [8]: 5.64 µM (active); AC50 (Cytochrome P450 2C19; read-out: AC50): 39.8 µM (inconclusive); AC50 (Cytochrome P450 2C9 [9]): inconclusive

Which results are given for COc1cc(C(=O)NCCOc2cc(C)ccc2C(C)C)cc(OC)c1OC?
EC50 (HEK293 [10]): 3.03 µM (active); IC50 (HEK293 [11]): 5.52 µM (active); IC50 (HEK293 [12]): 12 µM (active); IC50 (HEK293 [13]): 5.42 µM (active)

What does the source list for Cn1c(=O)cc(SCC(=O)NCCCN2CCN(c3ccc(F)cc3)CC2)c2ccccc21?
EC50 [6]: > 79.4 µM (inactive); EC50 [7]: > 79.4 µM (not active); EC50 [8]: > 26.5 µM (not active)

Which IC50 [14] does the source give for O=C(NCc1ccc2c(c1)OCO2)c1cc(-n2cnnc2)ccc1Cl here?
Its IC50 is 1.64 µM (active).

What about the IC50 [15] of the same compound?
Its IC50 is 2.44 µM (active).

CN(C)S(=O)(=O)c1ccc(C(=O)NCC[N+]2(C)CCCCCC2)o1 was tested. Which IC50 [14] did it give?
Its IC50 is 1.89 µM (active).

What about the IC50 [15] of the same compound?
The IC50 was 4.08 µM (active).

Which results are given for Cc1nccn1CC(=O)c1ccc(O)c(O)c1?
IC50 [16]: 2.37 µM (active); IC50 [17]: 59.6 µM (active); AC50 [18]: 4.4 µM (active)

With O=C(NCCc1ccc(O)c(O)c1)C1CCCO1 (configuration not stated) as the compound, how does the IC50 [16] read?
The IC50 was 44.4 µM (active).

What about the IC50 [17] of the same compound?
The IC50 was > 100 µM (inactive).

How did the IC50 [14] turn out when C[N+]1(CCCOC(=O)C2(c3ccccc3)CCCC2)CCOCC1 was run?
The IC50 was 1.61 µM (active).

And the IC50 [15]?
The IC50 was 1.99 µM (active).

Which results are given for CC(C)CNC(=O)O?
AC50 (Cytochrome P450 2C19): inconclusive; AC50 (Cytochrome P450 2D6): inconclusive
